Source: patent US9981983B2, “Thienopyranones as kinase inhibitors” (SignalRx Pharmaceuticals, Inc., priority 2008, dated 2018)

How the values were obtained:
Format in all cases: cell-based
HL60 (AML) = assay: Cell proliferation MTS assay, HL60; settings: Homo sapiens, HL-60, 72 hours
Procedure: (§1) All cell lines were obtained from ATCC and cultured and plated according to ATCC recommendations. Cells were cultured in complete culture media containing 10% heat-inactivated fetal bovine serum (FBS, Mediatech, Inc.). For adherent cell lines, once cells reached 70% confluency, they were trypsinized and resuspended in phenol red free RPMI media (Mediatech, Inc.) plus 10% heat-inactivated FBS (assay buffer) and 100 μL aliquots were plated into each well of 96-well microtiter plates at a final density of 1,000-2,000 cells/well. Cells were incubated overnight at 37° C. in 5% CO2, and treated with test compounds on the next day. For suspension cell lines, cells were resuspended in assay buffer, plated into 96-well microtiter plates at a density of 10^4-10^5 cells/well/100 μL, and treatment was started on the same day. Cells were treated with vehicle (DMSO) and test compounds for 72 hours at concentration of 100, 70, 40, 20, 10, 5, 2.5, 1.25, 0.5 and 0.2 μM in four replicates at 37° C. in 5% CO2.

786-O cells = assay: Cellular proliferation (Example B method), 786-O; settings: Homo sapiens, 786-0, renal cell carcinoma
Procedure: PC3 cells were obtained from the American Type Culture Collection (ATCC, Manassas, Va., Cat.# CRL-1435) Two thousand cells from the prostate cancer line PC3 were placed in 50 μL of complete RPMI 1640 media (Invitrogen, Carlsbad, Calif., Cat.#22400-105) with 10% fetal bovine serum (Invitrogen, Carlsbad, Calif., Cat.#10438-026) into each well of 96 well cell culture plates in a hexaplicate sampling pattern. A 50 μL aliquot of test compound (prepared from stock test compounds in DMSO diluted into media) was added to the appropriate well such that the final concentrations of test compound were 200, 40, 8, 1.6, 0.32, 0.064, 0.0128, 0.00256, and 0 μM and the final DMSO concentration was less than or equal to 0.2%.
The plates were incubated for 72 hours 37° C. in an atmosphere of 5% CO2. At the end of this time a 10 μL aliquot of WST solution (Roche Applied Science, Mannheim, Germany) was added into each of the wells. Cells were exposed to the WST solution for 4 hours. A SpectraMax Plus spectrophotometric plate reader (Molecular Devices, Sunnydale, Calif.) was then used to measure the optical density at 450 nm (OD450 nm). Sigmoidal curves were drawn for the dose responses and IC50 values were calculated using the software package GraphPad Prism4 (GraphPad Software, Inc., San Diego, Calif.).
Several other cancer cell lines were obtained from ATCC and grown according to their recommendations and treated with test compounds to obtain the concentration of test compound that inhibited the cellular proliferation by 50% of no-treatment controls. These IC50 values (μM) are listed in Table 7 below obtained by the methods described in Example B: […]

786-0 cells = assay: Apoptosis in 786-0 cells (Annexin V / PI flow cytometry); design: unit not given here; settings: overnight
Procedure: In order to evaluate the mechanism of action of these compounds, 786-0 cell cultures were treated with Cpd 9 or Cpd 28 at different concentrations overnight and then analyzed for apoptotic induction. The cells were stained using standard methods with Annexin V and/or Propedium iodine (PI) at room temperature for 15 minutes. Apoptotic cells at early (Annexin V positive) or late stage (both Annexin V and PI positive) were detected by Flow Cytometry.

U87MG (Brain) = assay: Cell proliferation MTS assay, U87MG; settings: Homo sapiens, U-87 MG, 72 hours
Procedure: as §1

BXPC3 (Pancreas) = assay: Cell proliferation MTS assay, BXPC3; settings: Homo sapiens, BXPC-3, 72 hours
Procedure: as §1

O=c1cc(N2CCOCC2)oc2c(-c3ccc4c(c3)OCCO4)csc12 [Compound 28, 3-(2,3-dihydrobenzo[b][1,4]dioxin-6-yl)-5-morpholino-7H-thieno[3,2-b]pyran-7-one]
IC50 (HL60 (AML)): 3.06 µM | IC50 (786-O cells): 3.32 µM | Early stage apoptotic cells (786-0 cells; 5 μM): 10.4 | Late stage apoptotic cells (786-0 cells; 5 μM): 11.56 | Total Apoptotic Cells (786-0 cells; 5 μM): 21.96 | Early stage apoptotic cells (786-0 cells; 10 μM): 16.45 | Late stage apoptotic cells (786-0 cells; 10 μM): 15.43 | Total Apoptotic Cells (786-0 cells; 10 μM): 31.88 | IC50 (U87MG (Brain)): 1.92 µM | IC50 (BXPC3 (Pancreas)): 3.35 µM
